# How the values were obtained:
# Type in all cases: in vivo
# [1] = test system: Descurainia sophia; assay: Activity assay of compositions: post-emergence spray treatment of stems and leaves (F), fresh weight inhibition and combined effect (Gowing method); conditions: 21 d
# Procedure: (§1) The required active ingredient B was purchased from a reagent company or a technical material manufacturer or synthesized by a conventional method. The technical materials were all dissolved with acetone solvents and diluted with aqueous solution of 0.1% Tween-80 emulsifier, which should be used immediately after dilution.
# Descurainia sophia weeds were cultivated by a pot culture method. […] Weed seeds with plump and uniform grains were selected, treated with 30% hydrogen peroxide for 10 min, and accelerated to germinate at 15-20° C. in a biochemical incubator (in darkness). The weed seeds that had just germinated were evenly placed on the surface of the soil and then covered with 0.5-1 cm soil according to the sizes of seeds.
# The culture was carried out in a controllable sunlight greenhouse at 20-30° C., in natural light, and with relative humidity of 57%-72%.
# Each treatment was repeated 4 times. Three pots with 20 weed seeds sowed per pot were treated each time.
# The agents were used once in total in the experiment. When at the stage of 1.5-2 leaves, the weeds were thinned out to maintain 10 weeds per pot. Thirty weeds were kept in each treatment, and then continued to be cultured until the 10-leaf stage for further treatment.
# (§2) The well-cultured test materials were evenly placed on a platform with an area of 0.5 m^2, and foliage spraying was carried out by the 3WP-2000-type walking spray tower at a dosage of 450 kg/ha and a spray pressure of 0.3 MPa. After all the solution was sprayed, the air valve was closed, and 30 seconds later, the door of the spray tower was opened, and the nutritional bowl was taken out. Next, the air valve was opened, and the spray tube was cleaned by spraying 50 ml of water. The test materials were transferred to and routinely cultured in a greenhouse after the treatment.
# (§3) A method for investigating absolute numbers was employed. Whole seedlings of survival weeds were cut off along the soil surface with a blade, and the fresh weight of the weeds was weighed using an analytical balance. For dead weeds, the fresh weight thereof was zero.
# (§4) The investigation was performed 21 days after the treatment for once in total.
# (§5) The theoretical fresh weight inhibition rate of a mixed combination of each treatment was calculated by the Gowing method (E0=X+Y−X*Y/100). Then compared with the measured inhibition rate (E), the type of the combined effect of the combination of the two on weeds was evaluated, which was a synergistic effect when E−E0>10%; an antagonistic effect when E−E0<−10%; an additional effect when −10%≤E−E0≤10%. An optimal ratio was determined according to factors such as the actual control effects, characteristics of herbicides, balance of the formulation, etc. In the formula, X represents the fresh weight inhibition rate of the active ingredient A in a dosage of P; Y represents the fresh weight inhibition rate of the active ingredient B in a dosage of Q. The statistical results are shown in Table 4.
# [2] = test system: monocotyledonous and dicotyledonous weeds; assay: Pre-emergence test experiment (weeds); design: key: 9: completely dead; 8: growth control rate is greater than or equal to 90% and less than 100%; 7: growth control rate is greater than or equal to 80% and less than 90%; 6: growth control rate is greater than or equal to 70% and less than 80%; growth control rate is greater than or equal to 50% and less than 70%; 4: growth control rate is greater than or equal to 30% and less than 50%; growth control rate is greater than or equal to 20% and less than 30%; growth control rate is greater than or equal to 10% and less than 20%; growth control rate is less than 10%; 0: no effect; conditions: 15 g a.i./ha
# [3] = test system: major crops; assay: Pre-emergence test experiment (crops); design: key: 9: completely dead; 8: growth control rate is greater than or equal to 90% and less than 100%; 7: growth control rate is greater than or equal to 80% and less than 90%; 6: growth control rate is greater than or equal to 70% and less than 80%; growth control rate is greater than or equal to 50% and less than 70%; 4: growth control rate is greater than or equal to 30% and less than 50%; growth control rate is greater than or equal to 20% and less than 30%; growth control rate is greater than or equal to 10% and less than 20%; growth control rate is less than 10%; 0: no effect; conditions: 15 g a.i./ha
# [4] = test system: Cyperus iria; assay: Pre-emergence sealing experiment for water-seeding; design: key: 9: completely dead; 8: growth control rate is greater than or equal to 90% and less than 100%; 7: growth control rate is greater than or equal to 80% and less than 90%; 6: growth control rate is greater than or equal to 70% and less than 80%; growth control rate is greater than or equal to 50% and less than 70%; 4: growth control rate is greater than or equal to 30% and less than 50%; growth control rate is greater than or equal to 20% and less than 30%; growth control rate is greater than or equal to 10% and less than 20%; growth control rate is less than 10%; 0: no effect; conditions: 15 g a.i./ha, 15 days, sulfonylurea-resistant strain
# Source text: (§6) The activity level criteria for plant damage (i.e., growth control rate) are as follows: • Level 9: completely dead; • Level 8: growth control rate is greater than or equal to 90% and less than 100%; • Level 7: growth control rate is greater than or equal to 80% and less than 90%; • Level 6: growth control rate is greater than or equal to 70% and less than 80%; • Level 5: growth control rate is greater than or equal to 50% and less than 70%; • Level 4: growth control rate is greater than or equal to 30% and less than 50%; • Level 3: growth control rate is greater than or equal to 20% and less than 30%; • Level 2: growth control rate is greater than or equal to 10% and less than 20%; • Level 1: growth control rate is less than 10%; • Level 0: no effect.
# (§7) The seeds of Leptochloa chinensis, Digitaria sanguinalis, Monochoria vaginalis (sulfonylurea-resistant strain, collected from Hunan, China), Cyperus iria (sulfonylurea-resistant strain, collected from Jiangsu, China), Huaidao (rice cultivar), etc. were broadcasted on the surface of nutrition bowls filled with soil and fully covered by soil. The prepared nutrition bowls were then placed in a cultivation box, with water filled to a suitable height to keep the soil in the nutrition bowls moist. The test compounds of the present invention were individually dissolved with mixed solutions of acetone and Tween-80, then diluted into solution of a certain concentration using a certain amount of water and sprayed using a spray tower. The plants were placed on a greenhouse seedbed and cultured for 15 days, and the experimental results were then collected. The compounds were applied at 120, 60, 30 and 15 g a.i./ha in triplicate and the results were averaged. The effects were evaluated according to the above activity level criteria.
# [5] = test system: Digitaria sanguinalis; assay: Pre-emergence sealing experiment for water-seeding; design: key: 9: completely dead; 8: growth control rate is greater than or equal to 90% and less than 100%; 7: growth control rate is greater than or equal to 80% and less than 90%; 6: growth control rate is greater than or equal to 70% and less than 80%; growth control rate is greater than or equal to 50% and less than 70%; 4: growth control rate is greater than or equal to 30% and less than 50%; growth control rate is greater than or equal to 20% and less than 30%; growth control rate is greater than or equal to 10% and less than 20%; growth control rate is less than 10%; 0: no effect; conditions: 15 g a.i./ha, 15 days
# Source text: as §6, §7
# [6] = test system: Leptochloa chinensis; assay: Pre-emergence sealing experiment for water-seeding; design: key: 9: completely dead; 8: growth control rate is greater than or equal to 90% and less than 100%; 7: growth control rate is greater than or equal to 80% and less than 90%; 6: growth control rate is greater than or equal to 70% and less than 80%; growth control rate is greater than or equal to 50% and less than 70%; 4: growth control rate is greater than or equal to 30% and less than 50%; growth control rate is greater than or equal to 20% and less than 30%; growth control rate is greater than or equal to 10% and less than 20%; growth control rate is less than 10%; 0: no effect; conditions: 15 g a.i./ha, 15 days
# Source text: as §6, §7
# [7] = test system: Monochoria vaginalis; assay: Pre-emergence sealing experiment for water-seeding; design: key: 9: completely dead; 8: growth control rate is greater than or equal to 90% and less than 100%; 7: growth control rate is greater than or equal to 80% and less than 90%; 6: growth control rate is greater than or equal to 70% and less than 80%; growth control rate is greater than or equal to 50% and less than 70%; 4: growth control rate is greater than or equal to 30% and less than 50%; growth control rate is greater than or equal to 20% and less than 30%; growth control rate is greater than or equal to 10% and less than 20%; growth control rate is less than 10%; 0: no effect; conditions: 15 g a.i./ha, 15 days, sulfonylurea-resistant strain
# Source text: as §6, §7
# [8] = test system: weeds; assay: Activity assay of compositions: soil sealing treatment (S), fresh weight inhibition and combined effect (Gowing method); conditions: 21 d
# Procedure: as §1
# • Weeds were cultivated in a controllable sunlight greenhouse at 20 to 30° C., in natural light, and with relative humidity of 57% to 72%. […] The test soil was quantitatively filled to ¾ of the pot, and then watered from the bottom of the pot to completely wet the soil to saturation. The test weed seeds were accelerated to just germinate, and then evenly and quantitatively broadcasted on the soil surface, covered with 0.5-1 cm soil according to the sizes of the seeds, and ready for use 72 hours after sowing.
# Each treatment was repeated 4 times. Four pots with 20 weed seeds sowed per pot were treated each time.
# as §2, with “well-sowed” for “well-cultured”, “closed. And” for “closed, and”, “water.” for “water. The test materials were transferred to and routinely cultured in a greenhouse after the treatment.”
# as §3, §4, §5
structure (smiles),measurement,setting,value
CCOC(=O)c1nc(-c2ccc(C(F)(F)F)c(OC)c2F)nc(N)c1OC,Control effect of B applied alone in a corresponding dose (%),[1]; B 6 g a.i./ha,26.8%
same,Control effect of B applied alone in a corresponding dose (%),[1]; B 12 g a.i./ha,37.7%
"C[N+](C)(C)CCO.O=C([O-])COc1ccc(Cl)cc1Cl [2,4-D-Choline]",Control effect of B applied alone in a corresponding dose (%),[1]; B 150 g a.i./ha,44.7%
same,Control effect of B applied alone in a corresponding dose (%),[1]; B 300 g a.i./ha,60.0%
Cc1nn(C)cc1C(=O)Oc1c(C(=O)c2ccc(C(F)(F)F)cc2S(C)(=O)=O)c(C)nn1C [Bipyrazone],Control effect of B applied alone in a corresponding dose (%),[1]; B 15 g a.i./ha,55.4%
same,Control effect of B applied alone in a corresponding dose (%),[1]; B 30 g a.i./ha,78.9%
O=C(O)c1nc(Cl)ccc1Cl [Clopyralid],Control effect of B applied alone in a corresponding dose (%),[1]; B 30 g a.i./ha,40.5%
same,Control effect of B applied alone in a corresponding dose (%),[1]; B 60 g a.i./ha,58.8%
Cc1ccc(-n2cnc(C(F)(F)F)n2)nc1Oc1cccc(C(F)(F)F)c1 [Compound 8],Pre-emergence activity level (growth control rate) on Amaranthus retroflexus,[2]; Amaranthus retroflexus,9
same,Pre-emergence activity level (growth control rate) on Descurainia sophia,[2]; Descurainia sophia,9
same,Pre-emergence activity level (growth control rate) on Digitaria sanguinalis,[2]; Digitaria sanguinalis,9
same,Pre-emergence activity level (growth control rate) on Setaria viridis,[2]; Setaria viridis,9
same,Pre-emergence activity level (growth control rate) on Solanum nigrum,[2]; Solanum nigrum,9
same,Pre-emergence activity level (growth control rate) on Veronica,[2]; Veronica,9
same,Pre-emergence plant damage level (growth control rate) on Corn,[3]; Corn,0
same,Pre-emergence plant damage level (growth control rate) on Cotton,[3]; Cotton,0
same,Pre-emergence plant damage level (growth control rate) on Soybean,[3]; Soybean,0
same,"activity level (growth control rate, fresh weight), Cyperus iria",[4],9
same,"activity level (growth control rate, fresh weight), Digitaria sanguinalis",[5],9
same,"activity level (growth control rate, fresh weight), Leptochloa chinensis",[6],9
same,"activity level (growth control rate, fresh weight), Monochoria vaginalis",[7],9
COc1c(Cl)ccc(Cl)c1C(=O)O [Dicamba],Control effect of B applied alone in a corresponding dose (%),[1]; B 37.5 g a.i./ha,39.6%
same,Control effect of B applied alone in a corresponding dose (%),[1]; B 75 g a.i./ha,50.8%
c1cc[n+]2c(c1)-c1cccc[n+]1CC2 [Diquat dibromide monohydrate],Control effect of B applied alone in a corresponding dose (%),[1]; B 60 g a.i./ha,42.2%
same,Control effect of B applied alone in a corresponding dose (%),[1]; B 120 g a.i./ha,66.6%
CP(=O)(O)CCC(N)C(=O)O (stereo not drawn) [Glufosinate-ammonium],Control effect of B applied alone in a corresponding dose (%),[1]; B 60 g a.i./ha,50.7%
same,Control effect of B applied alone in a corresponding dose (%),[1]; B 120 g a.i./ha,71.5%
O=C(O)CNCP(=O)(O)O [Glyphosate],Control effect of B applied alone in a corresponding dose (%),[1]; B 75 g a.i./ha,56.6%
same,Control effect of B applied alone in a corresponding dose (%),[1]; B 150 g a.i./ha,75.8%
COC(=O)c1nc(-c2ccc(Cl)c(OC)c2F)cc(N)c1Cl [Halauxifen-methyl],Control effect of B applied alone in a corresponding dose (%),[1]; B 3 g a.i./ha,42.0%
same,Control effect of B applied alone in a corresponding dose (%),[1]; B 6 g a.i./ha,67.4%
C[n+]1ccc(-c2cc[n+](C)cc2)cc1 [Paraquat dichloride],Control effect of B applied alone in a corresponding dose (%),[1]; B 30 g a.i./ha,46.9%
same,Control effect of B applied alone in a corresponding dose (%),[1]; B 60 g a.i./ha,68.0%
COc1nc(OC)nc(C(=O)c2cccc(F)c2N(C)S(=O)(=O)C(F)F)n1 [Triafamone],Control effect of B applied alone in a corresponding dose (%),"[8]; Eclipta prostrata, B 7.5 g a.i./ha",41.1%
same,Control effect of B applied alone in a corresponding dose (%),"[8]; Eclipta prostrata, B 15 g a.i./ha",68.2%
C#CCN1C(=O)C(F)(F)Oc2cc(F)c(-n3c(=O)n(C)c(=S)n(C)c3=O)cc21 [Trifludimoxazin],Control effect of B applied alone in a corresponding dose (%),"[8]; Silene conoidea, B 30 g a.i./ha",44.4%
same,Control effect of B applied alone in a corresponding dose (%),"[8]; Silene conoidea, B 60 g a.i./ha",66.7%
CCCN(CCC)c1c([N+](=O)[O-])cc(C(F)(F)F)cc1[N+](=O)[O-] [Trifluralin],Control effect of B applied alone in a corresponding dose (%),"[8]; Eclipta prostrata, B 150 g a.i./ha",45.7%
same,Control effect of B applied alone in a corresponding dose (%),"[8]; Eclipta prostrata, B 300 g a.i./ha",67.5%

# From patent US20260305610A1, “TRIAZOLE COMPOUND, AND PREPARATION METHOD THEREFOR, HERBICIDAL COMPOSITION AND USE THEREOF” (QINGDAO KINGAGROOT CHEMICAL COMPOUND CO., LTD., priority 2023, published 2026)
